In patent US10047059B2, “Substituted quinoxalines for inhibiting kinase activity” (NEUPHARMA, INC., priority 2012, dated 2018):

How the values were obtained:
[1] = tested on: Colo205 cells; experiment: Inhibition of cancer cell growth, MTT or MTS assay, Colo205; format: cell-based; conditions: Homo sapiens, COLO 205, 72 h incubation
Description: (§1) Inhibition of cell growth by compounds was measured using MTT or MTS assay. Tumor cell lines were purchased from ATCC (American Type Culture Collection, Manassas, Va.). All cell lines were maintained in RPMI 1640 (Hyclone) supplemented with 10% fetal bovine serum (FBS, Hyclone), glutamine (2 mM, Hyclone), and antibiotics (penicillin 100 U/mL and streptomycin 50 μg/mL) at 37° C. in a humidified atmosphere of 5% CO2 in air. Taxol (as a positive control, Sigma) and compounds were dissolved in DMSO (Sigma), and the final concentration of DMSO in the medium was 1%. Tumor cells were plated in 96-well plates at densities of about 2000 (A375) or 4000 (A549 and Colo205) cells/well of a 96-well plate and allowed to adhere/grow for 24 h. They were then treated with various concentrations of drug and incubated for 72 h. For MTT method, medium was then removed by inverting and tapping the plates. 100 μL of MTT (0.5 mg/ml) was added to each well followed by an incubated at 37° C. for 4 h. MTT was then removed and 200 μL of DMSO was added to each well, and the ODs at 570 nm were measured after a 5 second shaking cycle in a 96-well spectrophotometer. For MTS method, 20 μL MTS (CellTiter 96 Aqueous One Solution, Promega) was added to each well followed by an incubated at 37° C. for 2-4 h, solutions were then directly put in a 96-well spectrophotometer, and the ODs at 490 nm were measured.
(§2) All concentrations of compounds were tested in triplicate and controls were averaged over 4 wells. IC50 was calculated by plotting the concentration of compound vs the percentage of inhibition in treated wells using GraphPad Prism 5. […] The scale utilized in Tables 7-9 is as follows: +++ less than 1000 nM; ++ between 1000 nM and 5000 nM; and + greater than 5000 nM. The scale utilized in […]

[2] = tested on: A549 cells; experiment: Inhibition of cancer cell growth, MTT or MTS assay, A549; format: cell-based; conditions: Homo sapiens, 72 h incubation
Description: as §1, §2

[3] = tested on: A375 cells; experiment: Inhibition of cancer cell growth, MTT or MTS assay, A375; format: cell-based; conditions: Homo sapiens, A-375, 72 h incubation
Description: as §1, §2

[4] = target: T1, KDR (VEGFR2) (Homo sapiens, UniProt P35968); experiment: Z'-LYTE kinase inhibition assay against KDR; format: biochemical; conditions: Z'-LYTE method
T1 construct: purchased Invitrogen
T1 sequence (P35968 20-1356): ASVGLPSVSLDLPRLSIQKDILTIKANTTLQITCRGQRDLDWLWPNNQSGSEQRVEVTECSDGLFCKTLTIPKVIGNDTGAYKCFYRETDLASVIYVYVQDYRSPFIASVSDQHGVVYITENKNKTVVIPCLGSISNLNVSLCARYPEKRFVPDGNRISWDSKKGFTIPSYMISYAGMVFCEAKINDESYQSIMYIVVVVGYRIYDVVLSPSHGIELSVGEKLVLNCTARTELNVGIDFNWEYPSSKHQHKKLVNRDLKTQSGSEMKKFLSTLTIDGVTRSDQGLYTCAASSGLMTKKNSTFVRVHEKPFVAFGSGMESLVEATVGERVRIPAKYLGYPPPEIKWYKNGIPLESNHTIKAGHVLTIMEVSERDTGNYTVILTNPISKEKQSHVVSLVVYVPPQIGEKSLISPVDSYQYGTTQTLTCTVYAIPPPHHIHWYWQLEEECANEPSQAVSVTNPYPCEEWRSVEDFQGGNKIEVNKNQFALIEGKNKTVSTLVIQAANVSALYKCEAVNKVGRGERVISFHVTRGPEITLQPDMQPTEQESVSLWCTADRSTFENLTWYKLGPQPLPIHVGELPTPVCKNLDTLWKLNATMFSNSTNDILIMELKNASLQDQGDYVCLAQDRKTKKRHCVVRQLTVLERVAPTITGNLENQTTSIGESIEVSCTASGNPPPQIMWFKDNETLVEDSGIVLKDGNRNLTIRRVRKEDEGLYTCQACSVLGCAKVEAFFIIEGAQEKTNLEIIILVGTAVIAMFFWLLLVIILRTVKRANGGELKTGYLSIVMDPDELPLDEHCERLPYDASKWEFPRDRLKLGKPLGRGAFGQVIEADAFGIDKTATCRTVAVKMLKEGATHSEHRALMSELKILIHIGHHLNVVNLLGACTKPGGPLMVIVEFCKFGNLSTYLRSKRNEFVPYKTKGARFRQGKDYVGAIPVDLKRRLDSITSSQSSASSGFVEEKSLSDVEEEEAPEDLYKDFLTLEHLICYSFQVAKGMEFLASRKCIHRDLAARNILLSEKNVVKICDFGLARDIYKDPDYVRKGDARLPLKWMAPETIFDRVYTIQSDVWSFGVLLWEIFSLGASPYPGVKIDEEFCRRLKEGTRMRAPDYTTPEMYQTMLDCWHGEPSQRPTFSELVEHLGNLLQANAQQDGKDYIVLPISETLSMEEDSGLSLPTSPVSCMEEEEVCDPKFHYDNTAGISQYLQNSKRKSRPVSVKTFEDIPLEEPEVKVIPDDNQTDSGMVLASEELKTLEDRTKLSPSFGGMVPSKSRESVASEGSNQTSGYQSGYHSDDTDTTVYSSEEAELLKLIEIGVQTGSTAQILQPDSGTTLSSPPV
Description: Inhibitory activities of compounds against KDR (VEGFR2) were also measured by Invitrogen using Z′-LYTE® Method as described above with the following modification. The 2×KDR (VEGFR2)/Tyr 01 mixture is prepared in 50 mM HEPES pH 7.5, 0.01% BRIJ-35, 10 mM MgCl2, 1 mM EGTA. The final 10 μL Kinase Reaction consists of 0.5-11.7 ng KDR (VEGFR2) and 2 μM Tyr 01 in 50 mM HEPES pH 7.5, 0.01% BRIJ-35, 10 mM MgCl2, 1 mM EGTA. After the 1 hour Kinase Reaction incubation, 5 μL of a 1:256 dilution of Development Reagent B is added.
The scale utilized in Table 6 is as follows: +++ less than 100 nM; and ++ greater than 100 nM

[5] = target: T2, BRAF V600E (Homo sapiens, UniProt P15056, V600E); experiment: Z'-LYTE kinase inhibition assay against BRAF V600E; format: biochemical; conditions: Z'-LYTE method
T2 construct: purchased Invitrogen
T2 sequence (P15056 whole entry V600E): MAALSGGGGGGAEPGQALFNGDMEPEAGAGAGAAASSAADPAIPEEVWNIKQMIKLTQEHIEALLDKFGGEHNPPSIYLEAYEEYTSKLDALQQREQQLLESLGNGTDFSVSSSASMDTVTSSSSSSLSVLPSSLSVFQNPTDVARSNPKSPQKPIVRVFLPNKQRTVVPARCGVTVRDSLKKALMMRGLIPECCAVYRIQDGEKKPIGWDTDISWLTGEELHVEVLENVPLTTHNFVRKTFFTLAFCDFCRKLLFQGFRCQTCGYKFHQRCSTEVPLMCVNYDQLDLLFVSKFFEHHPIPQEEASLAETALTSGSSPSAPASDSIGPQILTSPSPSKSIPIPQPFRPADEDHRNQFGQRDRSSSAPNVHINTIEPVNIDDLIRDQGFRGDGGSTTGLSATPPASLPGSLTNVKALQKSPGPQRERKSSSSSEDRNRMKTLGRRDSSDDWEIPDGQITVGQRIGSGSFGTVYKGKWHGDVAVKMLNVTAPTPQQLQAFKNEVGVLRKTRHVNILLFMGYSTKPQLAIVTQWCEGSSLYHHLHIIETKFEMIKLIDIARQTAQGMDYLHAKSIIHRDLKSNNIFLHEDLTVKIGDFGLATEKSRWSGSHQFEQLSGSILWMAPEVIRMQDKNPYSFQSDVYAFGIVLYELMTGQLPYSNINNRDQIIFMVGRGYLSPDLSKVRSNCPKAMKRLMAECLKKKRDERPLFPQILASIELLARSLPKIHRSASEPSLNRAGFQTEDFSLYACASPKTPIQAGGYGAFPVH
Description: (§3) Inhibitory activities Inhibitory activities of compounds against BRAF, and BRAF V600E were measured by Invitrogen using Z′-LYTE® Method as briefly described in the following. 4× Test compounds are dissolved in 1% DMSO. […] ATP solutions are diluted to a 4×ATP working concentration in Kinase Buffer (50 mM HEPES pH 7.5, 0.01% BRIJ-35, 10 mM MgCl2, 1 mM EGTA). Reaction started by 30-second shaking of mixture consisting of 2.5 μL 4× test compound, […] and 2.5 μL 4×ATP Solution on Bar-coded Corning, low volume NBS, black 384-well plate (Corning Cat. #3676). Then the mixture was incubated for 60-minute at room temperature for the kinase reaction, followed by addition of 5 μL of a 1:1024 dilution of development reagent A and 30-second plate shake. The mixture was then incubated for another 60-minute at room temperature for development reaction. Fluorescence was read by plate reader. IC50 was calculated by plotting the concentration of compound vs the percentage of inhibition in treated wells using GraphPad Prism 5.
(§4) Table 2 and 3 show % inhibition at 1 μM of several compounds of the invention against BRAF and BRAF V600E, respectively, using Z′-LYTE® method.
The scale utilized in Table 4 is as follows: +++ less than 100 nM; and ++ greater than 100 nM.

[6] = target: T3, BRAF (Homo sapiens, UniProt P15056); experiment: Z'-LYTE kinase inhibition assay against BRAF; format: biochemical; conditions: Z'-LYTE method
T3 construct: purchased Invitrogen
T3 sequence (P15056 whole entry): as the sequence (P15056 whole entry V600E) above, with E600V counted along it
Description: as §3, §4

[7] = tested on: Colo205 tumor xenograft; experiment: Inhibition of tumor growth in Colo205 tumor xenograft model; format: in vivo, BALB/c female nude mice; conditions: 30 mg/kg, qd X 21, i.p.
Description: Cells were implanted in BALB/c female nude mice and grown as tumor xenografts. When tumors achieved 150-250 mm^3, mice were assigned into treatment and control groups using randomized block design based upon their tumor volumes. Each group contained 6 tumor-bearing mice. Tumors were measured twice weekly in two dimensions using a caliper, and the tumor volume was calculated from two-dimensional measurements using the equation V=0.5×a×b^2 where a and b are the long and short diameters of the tumor, respectively. Relative tumor volume (RTV) was defined as TVt/TVi, the ratio of the volume on a given day (TVt) and the volume at the start of treatment (TVi). Relative tumor growth rate (T/C) was defined as RTVT/RTVC, the ratio of relative tumor volume of treatment group (RTVT) and relative tumor volume of control group (RTVC) on a given day. Inhibition of tumor growth in a Colo205 tumor xenograft model is shown below in Table 10 for compound C14.

| Compound | IC50 [1] [nM] | IC50 [2] [nM] | IC50 [3] [nM] | inhibition at 1 µM [4] [%] | IC50 [4] [nM] | inhibition at 1 µM [5] [%] | inhibition at 1 µM [6] [%] | T/C (relative tumor growth rate) [7] [%] | Tumor Volume Post-treatment [7] [mm3] | Tumor Volume Pre-treatment ([7]; baseline) [mm3] | IC50 [5] [nM] |
| --- | --- | --- | --- | --- | --- | --- | --- | --- | --- | --- | --- |
| O=C(Nc1ccc(C(=O)c2ccc3ncc(N4CCNCC4)nc3c2)cc1)Nc1cccc(Cl)c1 [Compound C11, 1-(3-chlorophenyl)-3-(4-(3-(piperazin-1-yl)quinoxaline-6-carbonyl)phenyl)urea] | < 1000 | 1000 to 5000 | 1000 to 5000 | 70 to 89 | > 100 | > 89 | 70 to 89 |  |  |  |  |
| O=C(Nc1ccc(C(=O)c2ccc3ncc(N4CCNCC4)nc3c2)cc1)Nc1ccc(F)c(C(F)(F)F)c1 [Compound C14, 1-(4-fluoro-3-(trifluoromethyl)phenyl)-3-(4-(3-(piperazin-1-yl)quinoxaline-6-carbonyl)phenyl)urea] | < 1000 | < 1000 | < 1000 | > 89 | > 100 | > 89 | < 70 | 65 | 1016 | 233 | > 100 |
| O=C(Nc1ccc(Cl)cc1)Nc1ccc(C(=O)c2ccc3ncc(N4CCNCC4)nc3c2)cc1 [Compound C09, 1-(4-chlorophenyl)-3-(4-(3-(piperazin-1-yl)quinoxaline-6-carbonyl)phenyl)urea] | 1000 to 5000 | 1000 to 5000 | 1000 to 5000 | < 70 |  | > 89 | 70 to 89 |  |  |  |  |
